Reference: US20090311321A1, “ORAL DISINTEGRATING TABLET HAVING MASKED BITTER TASTE AND METHOD FOR PRODUCTION THEREOF” (KISSEI PHARMACEUTICAL CO., LTD., priority 2006, published 2009)

Experiment: Solubility of mitiglinide calcium hydrate (water, pH dependence)
Type: physicochemical
From the text: The inventors of the present invention conducted studies on orally disintegrating tablets containing mitiglinide calcium hydrate. […] Because the orally disintegrating tablets are designed to quickly disintegrate in the mouth, the influence of bitterness becomes a big factor when the active ingredient has a bitter taste. […] Under these circumstances, the inventors of the present invention conducted studies to provide a mitiglinide calcium hydrate-containing orally disintegrating tablet having reduced bitterness and capable of rapidly dissolving in the digestive tract.
As mentioned above, the mitiglinide calcium hydrate-containing preparation is administered immediately before meal, and preferably, rapidly dissolves upon administration to improve postprandial hyperglycemia. It is therefore desirable in an orally disintegrating tablet of the present invention that the tablet rapidly dissolves in the digestive tract, particularly in the stomach, after having disintegrated in the mouth. […] It is therefore preferable that an orally disintegrating tablet of the present invention rapidly dissolve in the stomach and water.

- Solubility in water (water): does not easily dissolve in water
Structure (SMILES): O=C(O)[C@H](CC(=O)N1C[C@H]2CCCC[C@H]2C1)Cc1ccccc1 [mitiglinide calcium hydrate, (+)-Monocalcium bis[(2S,3a,7a-cis)-α-benzylhexahydro-γ-oxo-2-isoindolinebutyrate]dihydrate]
- pH-dependent solubility (alkaline versus neutral to acidic pH): soluble in an alkaline pH range, and insoluble toward the neutral to acidic pH
